Laboratory results: the CombiSolv-Exp solvation set (Vermeire and Green 2021)

Assay: solvent given as SMILES

O=C(O)c1cccc([N+](=O)[O-])c1C(=O)O
Conditions	solvation free energy, 298 K [kcal/mol]
in C1CCOC1	-19.1
in C1COCCO1	-18.7
in CC(C)=O	-18.5
in CC(C)CO	-17.8
in CC(C)O	-18.4
in CCC(C)O	-18.1
in CCCCCCCO	-17.6
in CCCCCCO	-17.7
in CCCCCO	-17.8
in CCCCO	-17.9
in CCCO	-18.3
in CCOC(C)=O	-17.3
in COC(C)=O	-18.2
in O	-17.3

Cc1cc(=O)n(-c2ccccc2)n1C
Conditions	solvation free energy, 298 K [kcal/mol]
in O	-13.3

C=C1CCC2(C(C)C)CC12 (stereo not given)
Conditions	solvation free energy, 298 K [kcal/mol]
in O	0.49

CCCCCCCN
Conditions	solvation free energy, 298 K [kcal/mol]
in CCCCCCC	-6.22

CC(F)(Cl)Cl
Conditions	solvation free energy, 298 K [kcal/mol]
in CCCCCCCC(=O)OCC(COC(=O)CCCCCCC)OC(=O)CCCCCCC	-2.89

CC(Cl)(Cl)Cl
Conditions	solvation free energy, 298 K [kcal/mol]
in C1CCOC1	-4.35
in CC(=O)CC(C)C	-4.28
in CC(C)=O	-4.23
in CC(C)O	-3.56
in CCCCCCCCCCCCCC	-3.61
in CCCCCCCCCCCCCCCC	-3.67
in CCCCCCCCN(CCCCCCCC)CCCCCCCC	-3.63
in CCCCCCCCO	-3.67
in CCCCCN(CCCCC)CCCCC	-3.78
in CCCCCl	-4.32
in CCCCN(CCCC)CCCC	-3.69
in CCCCOCCCC	-4.08
in CCCO	-3.94
in CCOCC	-4.13
in ClC(Cl)(Cl)Cl	-4.24
in ClC(Cl)Cl	-4.42
in ClCCCl	-4.24
in [2H]O[2H]	-0.57

FCF
Conditions	solvation free energy, 298 K [kcal/mol]
in CCCCCCCCC	-0.37
in CCCCCCCCO	-0.57
in CN1CCCC1=O	-1.69
in CN(C)C=O	-1.69
in O	-0.33

CCCCC(C)=O
Conditions	solvation free energy, 298 K [kcal/mol]
in C1COCCO1	-5.69
in CC(C)CC(C)(C)C	-4.72
in CCCCCC	-4.68
in CCCCCCC	-4.55
in CCCCCCCC	-4.6
in CCCCCCCCCC	-4.61
in CCCCCCCCCCCCCCCC	-4.39
in CCCCCCCCO	-5.02
in CO	-5.21
in ClC(Cl)(Cl)Cl	-5.36
in NC=O	-4.46
in O	-3.3
in [2H]O[2H]	-3.24

O=[N+]([O-])c1ccc(Cl)c(Cl)c1
Conditions	solvation free energy, 298 K [kcal/mol]
in C1CCCCC1	-8.7
in CC(C)O	-8.04
in CCCCCC	-7.78
in CCCCCCC	-7.65
in CCCCCCCCC=CCCCCCCCC(=O)OCC(COC(=O)CCCCCCCC=CCCCCCCCC)OC(=O)CCCCCCCC=CCCCCCCCC	-7.34
in CCCCO	-8.08
in CCCO	-8.26
in CCO	-8.24
in CCOC(C)=O	-9.16
in CO	-8.41
in ClC(Cl)(Cl)Cl	-9.07

Br
Conditions	solvation free energy, 298 K [kcal/mol]
in CCCC	-1.23
in CCCCCC	-1.19
in CCCCCCCC	-1.11
in CCCCCCCCCC	-1.09

Cc1cccc2c(C)cccc12
Conditions	solvation free energy, 298 K [kcal/mol]
in CCCCCCCCC=CCCCCCCCC(=O)OCC(COC(=O)CCCCCCCC=CCCCCCCCC)OC(=O)CCCCCCCC=CCCCCCCCC	-9.3
in O	-2.78

OC1COC(O)C(O)C1O (stereo not given)
Conditions	solvation free energy, 298 K [kcal/mol]
in O	-20.5

CCO
Conditions	solvation free energy, 298 K [kcal/mol]
in Brc1ccccc1	-3.13
in C1CCCCC1	-2.32
in C1CCOC1	-4.51
in C1COCCO1	-4.36
in C=CCCCCCCC	-2.34
in CC1COC(=O)O1	-4.2
in CC#N	-4.38
in CC(=O)N(C)C	-5.24
in CC(=O)O	-5.22
in CC(=O)c1ccccc1	-4.04
in CC(C)(C)O	-5.05
in CC(C)=O	-4.54
in CC(C)CC(C)(C)C	-2.36
in CC(C)CCCC(C)CCCC(C)CCCCC(C)CCCC(C)CCCC(C)C	-2.01
in CC(C)CCO	-4.8
in CC(C)CO	-4.79
in CC(C)O	-4.94
in CC(C)OC(C)C	-3.77
in CC(Cl)Cl	-3.56
in CCC(C)=O	-4.36
in CCCC#N	-4.1
in CCCCC(CC)COC(=O)CCCCC(=O)OCC(CC)CCCC	-3.37
in CCCCCCC	-2.2
in CCCCCCCC	-2.14
in CCCCCCCCC=CCCCCCCCC(=O)OCC(COC(=O)CCCCCCCC=CCCCCCCCC)OC(=O)CCCCCCCC=CCCCCCCCC	-3.22
in CCCCCCCCCC	-2.25
in CCCCCCCCCCCCCCCC	-1.97
in CCCCCCCCCCO	-4.1
in CCCCCCCCCOC(=O)c1ccccc1C(=O)OCCCCCCCCC	-3.26
in CCCCCCCCO	-4.43
in CCCCCO	-4.65
in CCCCCl	-3.07
in CCCCN(C=O)CCCC	-4.53
in CCCCO	-4.9
in CCCCOCCCC	-3.32
in CCCO	-4.91
in CCCOCCC	-3.45
in CCN(CC)C(C)=O	-5.06
in CCN(CC)CC	-4.02
in CCNC(C)=O	-4.95
in CCNC=O	-4.9
in CCOC(=O)c1ccccc1C(=O)OCC	-3.54
in CCOC(C)=O	-4.13
in CCOCC	-4.42
in CCOCCO	-4.56
in CCOCCOCCOCC	-4.21
in CCOP(=O)(OCC)OCC	-4.76
in CCOc1ccccc1	-3.36
in CN1CCCC1=O	-5.09
in CN1CCCCC1=O	-5.13
in CN1CCN(C)C1=O	-4.92
in CN(C)C=O	-5.1
in CN(C)P(=O)(N(C)C)N(C)C	-6.13
in CNC(C)=O	-4.98
in CNC=O	-4.96
in CO	-5.28
in COC(C)(C)C	-3.94
in COC(C)=O	-4.11
in COCCO	-4.79
in COP(=O)(OC)OC	-4.98
in COc1ccccc1	-3.52
in CS(C)=O	-5.24
in Cc1ccc(C)cc1	-3.12
in Cc1cccc(C)c1	-3
in Cc1cccc(C)n1	-4.87
in Cc1cccc(O)c1	-5.53
in Cc1ccccc1	-3.22
in Cc1ccccn1	-4.97
in ClC(Cl)(Cl)Cl	-2.97
in ClC(Cl)Cl	-3.96
in ClCCl	-3.75
in Clc1ccccc1	-3.18
in FC(F)(F)C(F)(F)C(F)(F)C(F)(F)C(F)(F)C(F)(F)F	-1.55
in Fc1c(F)c(F)c(F)c(F)c1F	-2.79
in Fc1ccccc1	-3.32
in ICI	-2.83
in Ic1ccccc1	-3.04
in NC=O	-4.84
in Nc1ccccc1	-4.38
in O	-5.01
in O=C1CCCCC1	-4.34
in O=C1CCCO1	-4.44
in O=CN1CCOCC1	-4.53
in OCC(O)CO	-4.32
in OCCO	-4.71
in OCCOCCO	-4.56
in OCCOCCOCCO	-4.17
in OCc1ccccc1	-4.79
in S=C=S	-2.71
in [2H]O[2H]	-5.08
in c1ccc2ncccc2c1	-4.53
in c1ccc(COCc2ccccc2)cc1	-3.38
in c1ccccc1	-3.28
in c1ccncc1	-5.05

C=C1C=CC(C(C)C)CC1 (stereo not given)
Conditions	solvation free energy, 298 K [kcal/mol]
in O	0.26

CC(=O)C(C)C
Conditions	solvation free energy, 298 K [kcal/mol]
in CCCCCCCCCCCCCCCC	-3.52
in CCCCCCCCO	-4.15
in O	-3.24
in [2H]O[2H]	-3.22

CBr
Conditions	solvation free energy, 298 K [kcal/mol]
in O	-0.82

CCCCCOC(C)=O
Conditions	solvation free energy, 298 K [kcal/mol]
in CCCCCC	-5.57
in CCCCCCC	-5.48
in CCCCCCCC	-5.42
in CCCCCCCCCC	-5.37
in CCCCCCCCCCCCCCCC	-5.24
in CCCCCCCCO	-5.61
in NC=O	-4.32
in O	-2.48
in [2H]O[2H]	-2.55

CC(C)(c1ccc(O)cc1)c1ccc(O)cc1
Conditions	solvation free energy, 298 K [kcal/mol]
in CCCCCCC	-13
in CCCCCCCC	-12.9
in CCCCCCCCCC	-12.8
in Cc1ccc(C)cc1	-15.5
in Cc1cccc(C)c1	-15.5
in Cc1ccccc1C	-15.6
in O	-14.4

CCCCCCCC(C)=O
Conditions	solvation free energy, 298 K [kcal/mol]
in NC=O	-5.43
in O	-2.5
